In US20240058321A1, “FARNESYL-TRANSFERASE INHIBITORS AND KRAS INHIBITORS FOR TREATING KRAS MUTANT CANCERS” (SEMMELWEIS EGYETEM, priority 2021, published 2024):
Read-outs that look alike come from different tables or passages of the source. Values belong to the molecule of their own block, whether it stands above or below them.

Assays:
SW1573 [1] = assay: 2D combinational test (SRB growth inhibition, six days); details: Homo sapiens
PF97 = assay: as above; details: Homo sapiens, 144 h
MIAPACA2 = assay: as above; details: Homo sapiens, MIA PaCa-2, 144 h
cancer patients = details: patients, cited from earlier work
SW480 = assay: 2D combinational test (SRB growth inhibition, six days); assay type: cell-based, human; details: Homo sapiens
Excerpt: (§1) OD values were normalized to control. […] Data shown are results of three independent experiments.

SW1990 = assay: as above; assay type: cell-based, human; details: Homo sapiens, SW1990, SW1990, read-out: Relative cell viability (MEAN)
Excerpt: as §1

SW1573 [2] = assay: siRNA knockdown experiment (SRB, IC50); assay type: cell-based, human; details: Homo sapiens, SW1573, 144 h, 6-day-long treatment
Experimental: Cells were plated in 2500 and 7500 cells/well density (for non-targeting siRNA and HRAS siRNA treatment, respectively) on a 48we11 plate supplemented with pre-mixed Lipofectamine RNAIMAX Reagent (Thermo Fisher) and OptiMEM (Thermo Fisher) containing 2.5 pmol/well non-targeting or HRAS siRNA according to the manufacturer's instruction (reverse transfection protocol). […] On the 3rd day of the treatment, cells were supplemented with fresh pre-mixed 2.5 pmol/well siRNA diluted in Lipofectamine RNAiMAX Reagent and Optimem according to the manufacturer's instruction. […] OD values were normalized to control, and IC50 values were calculated from transformed data using GraphPad PRISM 5 software.

H358 xenografts = assay: In vivo tumor growth of subcutaneous xenografts; set-up: species or system female SCID mice; details: AMG510 5 mg/kg i.p. and/or tipifarnib 40 mg/kg i.p., (day 1 = 1)
Experimental: (§2) H358 and SW1573 human lung adenocarcinoma cells (5×10^6 and 1×10^6, respectively) were subcutaneously injected in female SCID mice. Cells were injected in 200 μl DMEM:Matrigel mixture (ratio 1:1) based on preliminary experiments. When tumor reached approximately 100 mm^3 (H358 7 days, SW1573 26 days after injection), animals were randomized and treated intraperitoneally daily except for weekends. Drugs were dissolved in 60% DPBS, 34% PEG300, 5% DMSO and 1% Tween80. […] Controls received vehicle. Doses were determined based on previous literature, roughly using half of the used per os doses. The subcutaneous tumors were measured with a caliper and tumor volumes were calculated with the formula […] and expressed in mm^3. H358 experiment was terminated after 18 days and SW1573 after 25 days treatment. Tumors were measured upon harvest, then fixed with 4% PFA for histological analyses.
(§3) Animals were the properties of the Department of Experimental Pharmacology, National Institute of Oncology, H-1122, Budapest, Hungary. All experiments were carried out in accordance with the Guidelines for Animal Experiments and were approved for the Department of Experimental Pharmacology in the National Institute of Oncology, Budapest, Hungary.

SW1573 xenografts = assay: In vivo tumor growth of subcutaneous xenografts; set-up: species or system female SCID mice; details: AMG510 25 mg/kg i.p. and/or tipifarnib 40 mg/kg i.p., (day 1 = 1)
Experimental: as §2, §3

[3] = group mean, in g (unit assumed)

Compound: C=CC(=O)N1CCN(c2nc(=O)n(-c3c(C)ccnc3C(C)C)c3nc(-c4c(O)cccc4F)c(F)cc23)[C@@H](C)C1 [AMG-510]
viability at 0.01 µM (SW1573 [1]; SW1573, read-out: Viability data (MEAN), SW1573, BPH1222 0 μM + AMG-510 10 nM): 99.5%
viability at 0.025 µM (SW1573 [1]; SW1573, read-out: Viability data (MEAN), SW1573, BPH1222 0 μM + AMG-510 25 nM): 99.8%
viability at 0.05 µM (SW1573 [1]; SW1573, read-out: Viability data (MEAN), SW1573, BPH1222 0 μM + AMG-510 50 nM): 97.7%
viability at 0.01 µM (SW1573 [1]; SW1573, read-out: Viability data (MEAN), SW1573, SIMVASTATIN 0 μM + AMG-510 10 nM): 96.6%
viability at 0.025 µM (SW1573 [1]; SW1573, read-out: Viability data (MEAN), SW1573, SIMVASTATIN 0 μM + AMG-510 25 nM): 92.5%
viability at 0.05 µM (SW1573 [1]; SW1573, read-out: Viability data (MEAN), SW1573, SIMVASTATIN 0 μM + AMG-510 50 nM): 89.9%

Compound: C=C(F)C(=O)N1CCN(c2nc(OC[C@@H]3CCCN3C)nc3c2CCN(c2cccc4cccc(Cl)c24)C3)C[C@@H]1CC#N [adagrasib]
viability at 0.01 µM (SW1573 [1]; SW1573, 144 h, read-out: Relative cell viability, 6/A3, SW1573, 10 nM adagrasib + 0 nM tipifarnib, six days): 85.3%
viability at 0.025 µM (SW1573 [1]; SW1573, 144 h, read-out: Relative cell viability, 6/A3, SW1573, 25 nM adagrasib + 0 nM tipifarnib, six days): 77.3%
viability at 0.1 µM (SW1573 [1]; SW1573, 144 h, read-out: Relative cell viability, 6/A3, SW1573, 100 nM adagrasib + 0 nM tipifarnib, six days): 67.2%
viability at 0.01 µM (SW1573 [1]; SW1573, 144 h, read-out: Relative cell viability, 7/A3, SW1573, 10 nM adagrasib + 0 nM lonafarnib, six days): 86.6%
viability at 0.025 µM (SW1573 [1]; SW1573, 144 h, read-out: Relative cell viability, 7/A3, SW1573, 25 nM adagrasib + 0 nM lonafarnib, six days): 79.4%
viability at 0.1 µM (SW1573 [1]; SW1573, 144 h, read-out: Relative cell viability, 7/A3, SW1573, 100 nM adagrasib + 0 nM lonafarnib, six days): 72.5%
viability at 0.025 µM (PF97; read-out: Relative cell viability, 6/A1, 25 nM adagrasib + 0 nM tipifarnib): 58.2%
viability at 0.1 µM (PF97; read-out: Relative cell viability, 6/A1, 100 nM adagrasib + 0 nM tipifarnib): 46.7%
viability at 0.5 µM (PF97; read-out: Relative cell viability, 6/A1, 500 nM adagrasib + 0 nM tipifarnib): 45.9%
viability at 0.01 µM (PF97; read-out: Relative cell viability, 7/A1, 10 nM adagrasib + 0 nM lonafarnib): 52.5%
viability at 0.1 µM (PF97; read-out: Relative cell viability, 7/A1, 100 nM adagrasib + 0 nM lonafarnib): 29.2%
viability at 0.5 µM (PF97; read-out: Relative cell viability, 7/A1, 500 nM adagrasib + 0 nM lonafarnib): 19.4%
viability at 0.025 µM (MIAPACA2; read-out: Relative cell viability, 6/A2, 25 nM adagrasib + 0 nM tipifarnib): 50.4%
viability at 0.05 µM (MIAPACA2; read-out: Relative cell viability, 6/A2, 50 nM adagrasib + 0 nM tipifarnib): 38.3%
viability at 0.1 µM (MIAPACA2; read-out: Relative cell viability, 6/A2, 100 nM adagrasib + 0 nM tipifarnib): 28.9%
viability at 0.025 µM (MIAPACA2; read-out: Relative cell viability, 7/A2, 25 nM adagrasib + 0 nM lonafarnib): 50.8%
viability at 0.05 µM (MIAPACA2; read-out: Relative cell viability, 7/A2, 50 nM adagrasib + 0 nM lonafarnib): 37.5%
viability at 0.1 µM (MIAPACA2; read-out: Relative cell viability, 7/A2, 100 nM adagrasib + 0 nM lonafarnib): 27.3%

Compound: NC(=O)N1CCC(CC(=O)N2CCC([C@H]3c4ncc(Br)cc4CCc4cc(Cl)cc(Br)c43)CC2)CC1 [lonafarnib]
Objective responses (cancer patients; colorectal cancer): no objective responses
Progression-free or overall survival (cancer patients; ovarian cancer, in combination with chemotherapy): does not improve
viability at 0.5 µM (SW480; 500 nM lonafarnib + 0 μM BI2852, read-out: Relative cell viability (MEAN)): 72%
viability at 1 µM (SW480; 1000 nM lonafarnib + 0 μM BI2852, read-out: Relative cell viability (MEAN)): 63.9%
viability at 2 µM (SW480; 2000 nM lonafarnib + 0 μM BI2852, read-out: Relative cell viability (MEAN)): 55.7%
viability at 0.2 µM (SW1990; 200 nM lonafarnib + 0 nM MRTX1133): 83.1%
viability at 1 µM (SW1990; 1000 nM lonafarnib + 0 nM MRTX1133): 64.8%
viability at 2 µM (SW1990; 2000 nM lonafarnib + 0 nM MRTX1133): 57.6%

IC50 (SW1573 [2]; Cont (non-targeting) siRNA): 4.56 nM
IC50 (SW1573 [2]; HRAS siRNA): 10.5 nM
Compound: Cn1cncc1[C@@](N)(c1ccc(Cl)cc1)c1ccc2c(c1)c(-c1cccc(Cl)c1)cc(=O)n2C [tipifarnib]
viability at 0.025 µM (SW1573 [1]; SW1573, read-out: Relative cell viability (MEAN), SW1573, 25 nM tipifarnib + 0 μM BI2852): 41.4%
viability at 0.05 µM (SW1573 [1]; SW1573, read-out: Relative cell viability (MEAN), SW1573, 50 nM tipifarnib + 0 μM BI2852): 35.4%
viability at 0.1 µM (SW1573 [1]; SW1573, read-out: Relative cell viability (MEAN), SW1573, 100 nM tipifarnib + 0 μM BI2852): 29.2%
Weights of the tumors at the end of the experiment (H358 xenografts; animal 1, in g (unit assumed)): 0.182
Weights of the tumors at the end of the experiment (H358 xenografts; animal 2, in g (unit assumed)): 1.599
Weights of the tumors at the end of the experiment (H358 xenografts; animal 3, in g (unit assumed)): 1.023
Weights of the tumors at the end of the experiment (H358 xenografts; animal 4, in g (unit assumed)): 0.223
Weights of the tumors at the end of the experiment (H358 xenografts; animal 5, in g (unit assumed)): 0.225
Weights of the tumors at the end of the experiment (H358 xenografts; animal 6, in g (unit assumed)): 0.205
Weights of the tumors at the end of the experiment (H358 xenografts; animal 7, in g (unit assumed)): 0.239
Weights of the tumors at the end of the experiment, MEAN (H358 xenografts; [3]): 0.528
Weights of the tumors at the end of the experiment (SW1573 xenografts; animal 1, in g (unit assumed)): 0.5323
Weights of the tumors at the end of the experiment (SW1573 xenografts; animal 2, in g (unit assumed)): 0.2277
Weights of the tumors at the end of the experiment (SW1573 xenografts; animal 3, in g (unit assumed)): 0.3143
Weights of the tumors at the end of the experiment (SW1573 xenografts; animal 5, in g (unit assumed)): 0.2239
Weights of the tumors at the end of the experiment (SW1573 xenografts; animal 6, in g (unit assumed)): 0.2604
Weights of the tumors at the end of the experiment (SW1573 xenografts; animal 7, in g (unit assumed)): 1.2243
Weights of the tumors at the end of the experiment, MEAN (SW1573 xenografts; [3]): 0.4638
viability at 0.1 µM (SW1990; 100 nM tipifarnib + 0 μM BI2852): 75.6%
viability at 0.1 µM (SW1990; 100 nM tipifarnib + 0 nM MRTX1133): 80.2%
viability at 0.5 µM (SW1990; 500 nM tipifarnib + 0 μM BI2852): 67%
viability at 0.5 µM (SW1990; 500 nM tipifarnib + 0 nM MRTX1133): 70.3%
viability at 1 µM (SW1990; 1000 nM tipifarnib + 0 μM BI2852): 55%
viability at 1 µM (SW1990; 1000 nM tipifarnib + 0 nM MRTX1133): 63.4%
